Measurements as given in patent US11771711B2, “Substituted pyridines as DNMT1 inhibitors” (GlaxoSmithKline Intellectual Property Development Limited, priority 2021, dated 2023).
≈ marks a conversion by molar mass, not a printed value.

Experiments:
physchem = details: FaSSIF buffer, pH 6.5, fassif, thermodynamic from solid
Experimental: Solubility of Solid Compounds in Fasted Simulated Intestinal Fluid
The solubility of solid compounds in Fasted Simulated Intestinal Fluid (FaSSIF) was determined at pH 6.5 after 4 hour equilibration at room temperature (using procedures described in Sou, T.; Bergström, C. A. S. Automated assays for thermodynamic (equilibrium) solubility determination. Drug Discovery Today: Technologies 2018, 27, 11-19). 1 ml of FaSSIF buffer (3 mM Sodium taurocholate, 0.75 mM lecithin in sodium phosphate buffer at pH6.5) was added to manually weighed 1 mg of solid compound in a 4 ml vial. The resulting suspension was shaken at 900 rpm for 4 hours at room temperature and then transferred to a Multiscreen HTS, 96-well solubility filter plate to separate the residual solid and the filtrate. Quantification of the compound concentration in the filtrate was performed by HPLC-UV using single point calibration of a known concentration of the compound in DMSO. […] The dynamic range of the assay was 1-1000 μg/ml.

Full-length human DNMT1 = Full-length human DNMT1 (Homo sapiens (Human), UniProt P26358); experiment: DNMT1 Scintillation Proximity Assay (SPA) - Assay A; format: biochemical; details: footnote a: DNMT1 full length
Experimental: DNMT1 Scintillation Proximity Assay (SPA)—Assay A (Full-Length Human DNMT1)
This assay used Scintillation Proximity technology in a signal increase format to evaluate the potency of compounds. Full-length human DNMT1, hemi-methylated DNA duplex*, and tritiated SAM were utilized to monitor activity. Assay plate creation consisted of the following parameters: 500 nL of an 11 pt, 3-fold serial dilution of compound was stamped into a 96 well Costar plate (#3884). Assay buffer mix was made on the day of assay consisting of: 20 mM Tris pH 7.5, 1 mM DTT, 1 mM EDTA, and 5% glycerol. A 2× enzyme mix was then prepared consisting of 30 nM DNMT1 protein (full length human DNMT, made in house) in assay buffer. The 2× substrate mix was made last, and consisted of 160 nM 40mer hemi-methylated DNA*, 0.48 μM ^3H-SAM, and 2.92 μM cold SAM in assay buffer (^3H-SAM is added last). The quench (1 mM SAH) was made in bulk and frozen at −20 until the time of use. Ten uL of the 2× substrate mix was added to the entire plate using a multichannel electronic pipette. Plate was shaken for at least 10s between additions to ensure mixing. Next, 20 uL of 2× quench mix was added to column 12 using a multichannel pipette (shake plate). Using a multichannel electronic pipette, 10 uL of 2× enzyme mix was added to the full plate starting with column […] (column 12 last to avoid pre-quench carryover). Plates were incubated on the shaker for 30 minutes with the plate covered. At the end of the incubation period, 20 uL of quench mix were added to all wells except column 12 (shake plate) followed by the addition of 20 uL of 3 mg/mL PerkinElmer PEI PVT SPA Beads (Cat. #RPNQ0097) diluted in DNAse free water and allowed to shake for at least 30 minutes. Plates were sealed with a clear seal and centrifuged at 500 rpm for 1 min. Plates were read on a MicroBeta (Perkin Elmer, read for ^3H (1 min/well).
Microsoft Excel was used to analyze the data up to Vi/Vo and GraFit was used to fit the data. Responses were normalized to the uninhibited (DMSO) and pre-quenched controls within each plate. Dose-response curves were analyzed using a three-parameter logistic fit with Ymin constrained to 0 and results were expressed as IC50 values.
Final assay conditions: 20 mM Tris (Hampton Research—HR-937-06), pH 7.5, 1 mM DTT (Invitrogen—P2325), 1 mM EDTA (Invitrogen—AM9260G), 5% Glycerol (Teknova—G1796), 0.02% Pluronic F127 (Life Technologies—P6866), 15 nM DNMT1 (full length human DNMT1—GSK made in-house), 240 nM ^3H-SAM (PerkinElmer—NET155H001MC), 1460 nM cold SAM (New England Biolabs—B9003S) and 80 nM 40-mer hemi-methylated DNA Oligonucleotide (Integrated DNA Technologies—custom), 1 mM SAH (Sigma A9384), and 1 mg/mL PEI PVT SPA Beads (Perkin Elmer RPNQ0097) resuspended in water.

[1] = target: Human truncated DNMT1(601-1600) (Homo sapiens (Human), UniProt P26358); experiment: DNMT1 Scintillation Proximity Assay (SPA) - Assay B; format: biochemical; details: footnote b: DNMT1 truncate
Experimental: DNMT1 Scintillation Proximity Assay (SPA)—Assay B (Human Truncated DNMT1(601-1600))
This assay used Scintillation Proximity technology in a signal increase format to evaluate the potency of compounds. Human truncated DNMT1(601-1600), single hemi-methylated CpG site oligonucleotide, and Tritiated SAM were utilized to monitor activity. Assay plate creation consisted of the following parameters: 10 mM Compounds (11-point, 3-fold serial dilution) were stamped at 100 nL per well (100× in 100% DMSO) into a Griener white LV 384 well plate (#784075). Assay buffer mix was made on the day of assay consisting of: base buffer: (500 mM Hepes, ph 8, 1M MgCl2 made in advance, stored at room temp as a stock), 10% NP40-Surfact AMPS, 10% Ultrapure BSA 50 mg/ml, and 2M DTT (DL-Dithiolthreitol). The 2× enzyme mix was then prepared consisting of: DNMT1 protein (truncate human DNMT1—601-1600, made in house at 16.876 uM stock concentration) added to the assay buffer mix. […] Plates were read on a Viewlux (PerkinElmer, 613 nm emission filter, 300 sec dual-exposure, (10 min. total read time)).
The Abase database was used to analyze the data. […] Dose-response curves were analyzed using a four-parameter logistic fit and results were expressed as pIC50 values. […]

[2] = Rat pharmacokinetic study (oral bioavailability); format: in vivo; details: blood, PO gavage vs 60 minute IV infusion, 5% DMA/15% Solutol
Experimental: Pharmacokinetic Studies: All studies were conducted in accordance with the GSK Policy on the Care, Welfare and Treatment of Laboratory Animals and were reviewed either by the Institutional Animal Care and Use Committee at GSK or by the ethical review process at the institution where the studies were performed. Pharmacokinetic studies for example 2 were conducted using non-fasted, Male Wistar Han rats, n=3/dose route and for reference compound 4, non-fasted male Sprague-Dawley rats, n=2/dose route in a non-crossover design. Compounds were prepared as solutions in 5% DMA/15% Solutol and administered as a 60 minute IV infusion and PO gavage. Blood samples were collected serially at multiple time points from pre-dose through 24 hours post dose and the analytes were quantified by LC/MS/MS. The percent bioavailability was calculated by comparison of the dose normalized Area Under the Curve (DNAUC) obtained from PO dosing with the DNAUC from the IV route [(PO DNAUC/IV DNAUC)*100].

[3] = internal standards tested alongside in FaSSIF assay; cited from earlier work

Chain of Full-length human DNMT1 (P26358 whole entry): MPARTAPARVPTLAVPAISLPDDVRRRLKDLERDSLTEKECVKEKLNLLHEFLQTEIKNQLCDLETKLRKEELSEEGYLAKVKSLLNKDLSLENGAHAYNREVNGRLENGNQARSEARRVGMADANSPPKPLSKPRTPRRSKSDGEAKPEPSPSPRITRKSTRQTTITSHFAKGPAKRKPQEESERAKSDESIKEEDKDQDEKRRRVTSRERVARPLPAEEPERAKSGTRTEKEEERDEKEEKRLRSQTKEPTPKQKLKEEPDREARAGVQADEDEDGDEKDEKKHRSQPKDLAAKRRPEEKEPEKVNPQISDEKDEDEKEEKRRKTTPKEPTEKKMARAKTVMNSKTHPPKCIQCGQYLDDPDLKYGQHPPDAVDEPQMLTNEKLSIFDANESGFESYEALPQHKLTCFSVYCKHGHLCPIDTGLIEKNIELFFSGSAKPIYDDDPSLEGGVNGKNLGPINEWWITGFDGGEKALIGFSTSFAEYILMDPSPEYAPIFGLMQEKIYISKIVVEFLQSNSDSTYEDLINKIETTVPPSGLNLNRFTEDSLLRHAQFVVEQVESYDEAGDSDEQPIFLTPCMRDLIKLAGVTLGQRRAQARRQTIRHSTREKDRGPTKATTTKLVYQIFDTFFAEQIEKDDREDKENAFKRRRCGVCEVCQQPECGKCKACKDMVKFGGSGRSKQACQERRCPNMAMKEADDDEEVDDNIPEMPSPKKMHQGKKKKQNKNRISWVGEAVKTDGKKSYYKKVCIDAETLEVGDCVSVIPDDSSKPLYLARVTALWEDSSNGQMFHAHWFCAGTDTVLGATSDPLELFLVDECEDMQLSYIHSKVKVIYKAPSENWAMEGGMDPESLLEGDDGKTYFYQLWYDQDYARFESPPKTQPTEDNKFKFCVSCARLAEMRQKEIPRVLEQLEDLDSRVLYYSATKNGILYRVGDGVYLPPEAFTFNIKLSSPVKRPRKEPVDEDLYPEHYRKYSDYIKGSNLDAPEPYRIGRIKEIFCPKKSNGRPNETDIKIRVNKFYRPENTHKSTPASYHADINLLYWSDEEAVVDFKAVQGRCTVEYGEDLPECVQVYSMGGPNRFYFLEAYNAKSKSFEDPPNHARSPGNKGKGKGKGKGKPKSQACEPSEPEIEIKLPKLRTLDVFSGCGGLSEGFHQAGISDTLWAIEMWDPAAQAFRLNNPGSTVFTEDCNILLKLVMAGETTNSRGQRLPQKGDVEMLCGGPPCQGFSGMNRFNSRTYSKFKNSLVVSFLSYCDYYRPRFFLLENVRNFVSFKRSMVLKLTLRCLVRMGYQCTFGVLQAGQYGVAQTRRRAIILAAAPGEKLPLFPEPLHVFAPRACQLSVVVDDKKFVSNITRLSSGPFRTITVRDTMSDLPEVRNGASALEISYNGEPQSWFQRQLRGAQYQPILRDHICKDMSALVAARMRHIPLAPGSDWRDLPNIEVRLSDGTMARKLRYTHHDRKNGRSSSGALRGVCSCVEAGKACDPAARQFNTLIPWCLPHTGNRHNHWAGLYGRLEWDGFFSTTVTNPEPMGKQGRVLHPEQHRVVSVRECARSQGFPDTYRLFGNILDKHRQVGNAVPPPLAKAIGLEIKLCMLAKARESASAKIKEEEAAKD
Chain of Human truncated DNMT1(601-1600) (P26358 601-1600): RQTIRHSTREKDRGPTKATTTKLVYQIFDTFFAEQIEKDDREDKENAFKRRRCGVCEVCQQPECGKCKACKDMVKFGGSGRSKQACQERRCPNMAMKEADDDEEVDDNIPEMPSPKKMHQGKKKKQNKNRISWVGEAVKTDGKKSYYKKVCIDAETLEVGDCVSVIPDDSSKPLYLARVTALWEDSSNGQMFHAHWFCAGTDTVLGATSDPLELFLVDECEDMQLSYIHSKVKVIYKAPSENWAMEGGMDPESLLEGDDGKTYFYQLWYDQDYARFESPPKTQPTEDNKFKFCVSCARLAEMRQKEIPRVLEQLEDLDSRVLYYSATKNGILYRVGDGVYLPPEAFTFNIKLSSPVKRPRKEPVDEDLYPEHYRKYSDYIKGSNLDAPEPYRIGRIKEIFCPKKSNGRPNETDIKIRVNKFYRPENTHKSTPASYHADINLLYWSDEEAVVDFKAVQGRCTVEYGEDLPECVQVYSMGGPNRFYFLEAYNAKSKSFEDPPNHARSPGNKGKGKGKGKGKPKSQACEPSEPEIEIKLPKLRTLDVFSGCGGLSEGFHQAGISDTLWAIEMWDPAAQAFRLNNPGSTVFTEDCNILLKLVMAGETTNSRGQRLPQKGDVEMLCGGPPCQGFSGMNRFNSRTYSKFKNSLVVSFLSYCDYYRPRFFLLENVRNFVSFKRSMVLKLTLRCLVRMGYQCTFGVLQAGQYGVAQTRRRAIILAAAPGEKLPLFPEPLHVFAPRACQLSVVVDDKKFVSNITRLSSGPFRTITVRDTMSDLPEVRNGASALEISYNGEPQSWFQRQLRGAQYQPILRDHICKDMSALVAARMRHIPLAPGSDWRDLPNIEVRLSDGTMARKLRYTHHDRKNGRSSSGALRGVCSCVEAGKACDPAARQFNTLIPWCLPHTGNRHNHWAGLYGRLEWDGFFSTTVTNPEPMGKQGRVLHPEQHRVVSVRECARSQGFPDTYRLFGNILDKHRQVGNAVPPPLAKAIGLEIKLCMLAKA

| solubility at 4 h (physchem) [µg/mL] | IC50 (Full-length human DNMT1) [nM] | SMILES | other results |
| --- | --- | --- | --- |
| > 1000 | 5210 | CCc1c(C#N)c(SC(C(=O)NP(=O)(O)O)c2ccc(OS(C)(=O)=O)cc2)nc(N(C)C)c1C#N (stereo not drawn) [Example 3, (2-((3,5-dicyano-6-(dimethylamino)-4-ethylpyridin-2-yl)thio)-2-(4-((methylsulfonyl)oxy)phenyl)acetyl)phosphoramidic acid] | – |
| < 1 | 107 | CCc1c(C#N)c(SC(C(N)=O)c2ccc(OS(C)(=O)=O)cc2)nc(N(C)C)c1C#N (racemic) [Example 4, 4-(2-amino-1-((3,5-dicyano-6-(dimethylamino)-4-ethylpyridin-2-yl)thio)-2-oxoethyl)phenyl methanesulfonate] | – |
| 1 | 54 | CCc1c(C#N)c(S[C@@H](C(N)=O)c2ccc(OS(C)(=O)=O)cc2)nc(N(C)C)c1C#N [Example 2, (R)-4-(2-amino-1-((3,5-dicyano-6-(dimethylamino)-4-ethylpyridin-2-yl)thio)-2-oxoethyl)phenyl methanesulfonate] | bioavailability ([2]; non-fasted male Wistar Han rats, n=3/dose route): 40% |

More lines, now with the values behind:

| SMILES | solubility at 4 h (physchem) [µg/mL] | IC50 (Full-length human DNMT1) [nM] | other results |
| --- | --- | --- | --- |
| CCc1c(C#N)c(S[C@@H](C(N)=O)c2ccccc2)nc(N2CC[C@H](O)C2)c1C#N [Reference compound 2, reference compound] | 2.7 (≈ 6.63 µM) | 156 | – |
| CCc1c(C#N)c(SC(C(N)=O)c2ccc(Cl)cc2)nc(N(C)C)c1C#N (stereo not drawn) [Reference compound 3] | – | – | IC50 [1]: 631 nM |
| CCc1c(C#N)c(S[C@@H](C(N)=O)c2ccc(OC)cc2)nc(N2CC[C@H](O)C2)c1C#N [Reference compound 4, reference compound] | 4 (≈ 9.14 µM) | – | IC50 [1]: 79 nM; bioavailability ([2]; non-fasted male Sprague-Dawley rats, n=2/dose route): 6.1% |
| CC(=O)CC(c1ccccc1)c1c(O)c2ccccc2oc1=O (stereo not drawn) [Warfarin] | – | – | known solubility of internal standards [3]: 140 µg/mL |
| CCc1c(C#N)c(S[C@@H](C(N)=O)c2ccccc2)nc(N(C)C)c1C#N [Reference compound 1, reference compound] | < 1 | – | – |
